Test [1] has as its target T1, LSD-1 enzyme (Homo sapiens (Human), UniProt O60341). Briefly: biochemical.
Method: (§1) LSD1 Histone Demethylase Biochemical Assay
(§2) LANCE LSD1/KDM1A demethylase assay-10 μL of 1 nM LSD-1 enzyme (ENZO BML-SE544-0050) in the assay buffer (50 mM Tris, pH 7.5, 0.01% Tween-20, 25 mM NaCl, 5 mM DTT) were preincubated for 1 hour at 25° C. with 0.8 μL compound/DMSO dotted in black 384 well polystyrene plates. […] After stopping the reactions plates were incubated for 30 minutes and read on a PHERAstar FS plate reader (BMG Labtech).
Test [2] has as its target T1, LSD-1 enzyme.
Method: as §1, §2

Like-named read-outs stand apart in the source and are kept apart here.

Compound `COCC1(CN[C@@H]2C[C@H]2c2ccccc2)CCN(C(=O)N2CC(O)C2)CC1` [Example 111, 1-{[4-(methoxymethyl)-4-({[(1R,2S)-2-phenylcyclopropyl]amino}methyl)piperidin-1-yl]carbonyl}azetidin-3-ol] came in with an IC50 against LSD-1 enzyme [1] of under 0.1 µM.
At LSD-1 enzyme [2], `CCOCC1(CN[C@@H]2C[C@H]2c2ccccc2)CCN(CC2(C(=O)O)CCC2)CC1` [Example 71, 1-{[4-(ethoxymethyl)-4-({[(1R,2S)-2-phenylcyclopropyl]amino}methyl)piperidin-1-yl]methyl}cyclobutanecarboxylic acid] registered an IC50 of under 0.1 µM.
On LSD-1 enzyme [2], `N#Cc1ccc(OCC2(CN[C@@H]3C[C@H]3c3ccccc3)CCN(CC3(C(=O)O)CC3)CC2)cc1` [Example 81, 1-{[4-[(4-cyanophenoxy)methyl]-4-({[(1R,2S)-2-phenylcyclopropyl]amino}methyl)piperidin-1-yl]methyl}cyclopropanecarboxylic acid] registered an IC50 of under 0.1 µM.
Take `O=C(O)C1(CN2CCC(CN[C@@H]3C[C@H]3c3ccccc3)(COCc3ccccc3)CC2)CCC1` [Example 73, 1-{[4-[(benzyloxy)methyl]-4-({[(1R,2S)-2-phenylcyclopropyl]amino}methyl)piperidin-1-yl]methyl}cyclobutanecarboxylic acid]: at LSD-1 enzyme [2], the IC50 was under 0.1 µM.
On the same count and under the same terms, the value for `CC1(CN[C@@H]2C[C@H]2c2ccccc2)CCN(Cc2cnc(N)nc2)CC1` [Example 52, 5-{[4-methyl-4-({[(1R,2S)-2-phenylcyclopropyl]amino}methyl)piperidin-1-yl]methyl}pyrimidin-2-amine] was under 0.1 µM; that for `O=C(c1cccc(F)c1)N1CC(CN[C@@H]2C[C@H]2c2ccccc2)C1` (relative stereo) [Example 29, N-{[1-(3-Fluorobenzoyl)azetidin-3-yl]methyl}-trans-2-phenylcyclopropanamine] was under 0.1 µM; that for `COCC1(CN[C@@H]2C[C@H]2c2ccccc2)CCN(S(=O)(=O)c2ccnn2C)CC1` [Example 115, (1R,2S)—N-({4-(methoxymethyl)-1-[(1-methyl-1H-pyrazol-5-yl)sulfonyl]piperidin-4-yl}methyl)-2-phenylcyclopropanamine] was under 0.1 µM.
Still for that read-out and setting: the value for `O=C(O)C1(CN2CCC(CN[C@@H]3C[C@H]3c3ccccc3)(COc3ccccc3F)CC2)CCC1` [Example 76, 1-{[4-[(2-fluorophenoxy)methyl]-4-({[(1R,2S)-2-phenylcyclopropyl]amino}methyl)piperidin-1-yl]methyl}cyclobutanecarboxylic acid] was under 0.1 µM; that for `O=C(Nc1ccccc1F)N1CC(CN[C@@H]2C[C@H]2c2ccccc2)C1` (relative stereo) [Example 19, N-(2-Fluorophenyl)-3-{[(trans-2-phenylcyclopropyl)amino]methyl}azetidine-1-carboxamide] was under 0.1 µM; that for `COCC1(CN[C@@H]2C[C@H]2c2ccccc2)CCN(C(=O)c2ccc(N)nn2)CC1` [Example 40, 6-{[4-(methoxymethyl)-4-({[(1R,2S)-2-phenylcyclopropyl]amino}methyl)piperidin-1-yl]carbonyl}pyridazin-3-amine] was under 0.1 µM.
Compound `COCC1(CN[C@@H]2C[C@H]2c2ccccc2)CCN(C(=O)c2ccn(C)n2)CC1` [Example 42, (1R,2S)—N-({4-(methoxymethyl)-1-[(1-methyl-1H-pyrazol-3-yl)carbonyl]piperidin-4-yl}methyl)-2-phenylcyclopropanamine] came in with an IC50 on LSD-1 enzyme [2] of under 0.1 µM.
On the same count and under the same terms, in the case of `O=C(O)C1(CN2CCC(CN[C@@H]3C[C@H]3c3ccccc3)(COc3ncccc3F)CC2)CC1` [Example 89, 1-{[4-{[(3-fluoropyridin-2-yl)oxy]methyl}-4-({[(1R,2S)-2-phenylcyclopropyl]amino}methyl)piperidin-1-yl]methyl}cyclopropanecarboxylic acid] it was under 0.1 µM; in that of `COCC1(CN[C@@H]2C[C@H]2c2ccccc2)CCN(C(=O)c2ccn(CCC#N)n2)CC1` [Example 107, 3-(3-{[4-(methoxymethyl)-4-({[(1R,2S)-2-phenylcyclopropyl]amino}methyl)piperidin-1-yl]carbonyl}-1H-pyrazol-1-yl)propanenitrile], under 0.1 µM.

The IC50 is the concentration that inhibits the measured activity by half. Read a high IC50 as weaker potency in that assay.

The values above are taken from patent US9670210B2, “Cyclopropylamines as LSD1 inhibitors” (Incyte Corporation, priority 2014, dated 2017).
